Reference: US10729815B2, “Combined treatment for nerve injuries” (Ramot at Tel-Aviv University Ltd., priority 2016, dated 2020)

How the values were obtained:
[1] = tested on: astrocytes cultures of human brain cells, derived from astrocytoma, U-87 MG; experiment: In-vitro effect of anti-gliotic agents on 35S-GAG accumulation in activated astrocytes; format: cell-based; conditions: 48 h
Experimental: (§1) Cell culture—Astrocytes cultures of human brain cells, derived from astrocytoma, U-87 MG (ATCC® HTB-14™, American Type Culture Collection, Rockville, Md., USA) were cultured in growth medium [10% Fetal Bovine Serum (FBS) and 1% Penicillin-Streptomycin solution (PS) in Minimum Essential Medium (MEM)]. […] The cell suspension (5×10^5 cells/well) was seeded into a 6-well plate (500 μl/well) containing 1.5 ml/well of assay medium, incubated for 24±1 hours at […], 5% CO2, and then examined microscopically. Following, at 90% cell confluence, the plates were treated according to the following groups:
(§2) The anti-gliotic agents were added as follows: Chondroitinase ABC (0.2 U/ml), Collagenase (2 mg, 50 μl), β-D-Xyloside (2.5 mM, 20 μl), MMPs-3 (0.5 μg, 20 μl), Anti TGFβ 1,2&3 (10 μg, 20 μl), Mitomycin C (50 μg, 25 μl), ACE human recombinant (0.5 μg, 25 μl) and Anti-Nogo A (5 U, 25 μl).
Astrocytes activation causes glycosaminoglycans (GAGs) accumulation in cultures, both intracellularly, pericellularly and extracellularly. Therefore, GAGs can serve as a tracer for either formation or elimination of the scar barrier.

[2] = tested on: astrocytes cultures of human brain cells, derived from astrocytoma, U-87 MG; experiment: In-vitro effect of anti-gliotic agents on astrocytes survival (cell counting); format: cell-based; conditions: 48 h
Experimental: as §1, §2

[3] = activated with Bt2-cAMP + theophylline plus anti-gliotic agent
[4] = activated with Bt2-cAMP + theophylline plus anti-gliotic agent, values multiplied 6 times (normalized to vital cell survivors)
[5] = astrocytes activated with Bt2-cAMP 1 mM + theophylline 0.25 mM plus the anti-gliotic agent

Row | Molecule | Isolated 35S-GAGs Average + SD ([1]; activator(s) only, theophylline well multiplied 6 times (normalized to vital cell survivors)) | % of cells (cell percentage in astrocyte cultures relative to untreated cultures) ([2]; activator(s) only, no anti-gliotic agent, Bt2-cAMP 1 mM, theophylline 0.25 mM) [%] | % of Isolated 35S-GAGs (relative to the theophylline control) [1, 3] [%] | Isolated 35S-GAGs Average + SD [1, 4] | % of cells (cell percentage in astrocyte cultures relative to untreated cultures) [2, 5] [%]
1 | CCCC(=O)Nc1ncnc2c1ncn2[C@@H]1O[C@@H]2COP(=O)([O-])O[C@H]2[C@H]1OC(=O)CCC.[Na+] [Bt2-cAMP, N6,2′-O-Dibutyryladenosine 3′,5′-cyclic monophosphate, sodium salt, reference compound] | 34,872 + 2,946 | 32.8 |  |  | 
2 | O=[N+]([O-])c1ccc(O[C@@H]2OC[C@@H](O)[C@H](O)[C@H]2O)cc1 [β-D-Xyloside, 4-Nitrophenyl β-D-xylopyranoside, reference compound] |  |  | 78.5 | 61,016 + 21,506 | 54.7
3 | Chondroitinase ABC |  |  | 5.5 | 4,299 + 939 | 33.1
4 | Collagenase |  |  | 66.1 | 51,371 + 10,556 | 39.1
5 | MMPs-3: MMP-3-Matrix Metalloproteinase, human Stromlysin STR1 (Sigma SRP 7783) |  |  | 82.3 | 63,941 + 11,374 | 23.2
6 | ACE human recombinant: Angiotensin Converting Enzyme Human recombinant (Biotest 929-ZN) (protein, UniProt P12821 30-1306, looked up) Angiotensin-converting enzyme: LDPGLQPGNFSADEAGAQLFAQSYNSSAEQVLFQSVAASWAHDTNITAENARRQEEAALLSQEFAEAWGQKAKELYEPIWQNFTDPQLRRIIGAVRTLGSANLPLAKRQQYNALLSNMSRIYSTAKVCLPNKTATCWSLDPDLTNILASSRSYAMLLFAWEGWHNAAGIPLKPLYEDFTALSNEAYKQDGFTDTGAYWRSWYNSPTFEDDLEHLYQQLEPLYLNLHAFVRRALHRRYGDRYINLRGPIPAHLLGDMWAQSWENIYDMVVPFPDKPNLDVTSTMLQQGWNATHMFRVAEEFFTSLELSPMPPEFWEGSMLEKPADGREVVCHASAWDFYNRKDFRIKQCTRVTMDQLSTVHHEMGHIQYYLQYKDLPVSLRRGANPGFHEAIGDVLALSVSTPEHLHKIGLLDRVTNDTESDINYLLKMALEKIAFLPFGYLVDQWRWGVFSGRTPPSRYNFDWWYLRTKYQGICPPVTRNETHFDAGAKFHVPNVTPYIRYFVSFVLQFQFHEALCKEAGYEGPLHQCDIYRSTKAGAKLRKVLQAGSSRPWQEVLKDMVGLDALDAQPLLKYFQPVTQWLQEQNQQNGEVLGWPEYQWHPPLPDNYPEGIDLVTDEAEASKFVEEYDRTSQVVWNEYAEANWNYNTNITTETSKILLQKNMQIANHTLKYGTQARKFDVNQLQNTTIKRIIKKVQDLERAALPAQELEEYNKILLDMETTYSVATVCHPNGSCLQLEPDLTNVMATSRKYEDLLWAWEGWRDKAGRAILQFYPKYVELINQAARLNGYVDAGDSWRSMYETPSLEQDLERLFQELQPLYLNLHAYVRRALHRHYGAQHINLEGPIPAHLLGNMWAQTWSNIYDLVVPFPSAPSMDTTEAMLKQGWTPRRMFKEADDFFTSLGLLPVPPEFWNKSMLEKPTDGREVVCHASAWDFYNGKDFRIKQCTTVNLEDLVVAHHEMGHIQYFMQYKDLPVALREGANPGFHEAIGDVLALSVSTPKHLHSLNLLSSEGGSDEHDINFLMKMALDKIAFIPFSYLVDQWRWRVFDGSITKENYNQEWWSLRLKYQGLCPPVPRTQGDFDPGAKFHIPSSVPYIRYFVSFIIQFQFHEALCQAAGHTGPLHKCDIYQSKEAGQRLATAMKLGFSRPWPEAMQLITGQPNMSASAMLSYFKPLLDWLRTENELHGEKLGWPQYNWTPNSARSEGPLPDSGRVSFLGLDLDAQQARVGQWLLLFLGIALLVATLGLSQRLFSIRHRSLHRHSHGPQFGSEVELRHS |  |  | 22.9 | 17,814 + 2,201 | 70.4
